Test: Change of concentration in plasma over time after oral administration to rats (KNI-272 with Indinavir or Nelfinavir)
Conditions: for AUC: rat, plasma, po
Method: In this example, the change in concentration in blood of KNI-272 over time when the KNI-272 was orally administered in combination with Indinavir, i.e. the change in the concentration of a non-binding type of drug in plasma over time, was measured to evaluate the effect of drug interactions on fluctuations of dynamics in vivo. A commercially available Indinavir for oral administration, CRIXIVAN™ (manufactured by Merck), was used after dissolving Indinavir sulfate in a prescribed concentration. As KNI-272, a suspension prepared from a fine powder of KNI-272 was used. Rats were used as test animals. […] In addition, each compound was individually administered to control groups to evaluate the dynamics in vivo. The animals were fasted for 16 hours before administration. The measurement of the change in the non-binding drug concentration in plasma over time was carried out according to a conventional method using blood samples collected from the test animals.
The method of evaluation was applied to the above-mentioned system of Indinavir and KNI-272 was followed. […] In this example, a dosage of 50 mg/kg was selected for both Nelfinavir and KNI-272.

[1] = Indinavir 40 mg/kg + KNI-272 40 mg/kg p.o. at the same time

For `CSC[C@H](NC(=O)COc1cccc2cnccc12)C(=O)N[C@@H](Cc1ccccc1)[C@H](O)C(=O)N1CSC[C@H]1C(=O)NC(C)(C)C` [KNI-272, (R)-N-1,1-dimethylethyl-3-[(2S,3S)-2-hydroxy-3-[(R)-2-(5-isoquinolyloxyacetyl)amino-3-methylthiopropanoyl]amino-4-phenylbutanoyl]-1,3-thiazolidine-4-carboxyamide], the “increase in maximum concentration value in blood (Cmax) of KNI-272” value [1] was “about twice”, the “increase in the value of AUC of KNI-272” value [1] was “about a six-times increase” and the “increase in AUC value of KNI-272” value (KNI-272 10 mg/kg one hour after Indinavir 90 mg/kg) was “about 10 times”. The “decrease in the maximum concentration value in blood Cmax of KNI-272 (to fraction)” value (KNI-272 50 mg/kg with Nelfinavir 50 mg/kg vs alone) was “about ¼”, the “increase in the maximum concentration value in blood (Cmax) of KNI-272” value (KNI-272 administered one hour after Indinavir) was 3 times and the AUC (10 mg/kg, AUC value of KNI-272, KNI-272 10 mg/kg p.o., no Indinavir) was 660 ng·h/mL. The AUC (40 mg/kg, AUC value of KNI-272, KNI-272 40 mg/kg p.o. individually) was 4900 ng·h/mL, the AUC (40 mg/kg, AUC value of KNI-272, KNI-272 40 mg/kg p.o. together with Indinavir 40 mg/kg) was 29200 ng·h/mL and the AUC (50 mg/kg, AUC value for KNI-272, KNI-272 50 mg/kg p.o. only) was 9170 ng·h/mL. It also gave an AUC (50 mg/kg, AUC value for KNI-272, KNI-272 50 mg/kg p.o. simultaneously with Nelfinavir 50 mg/kg) of 10300 ng·h/mL and an AUC (AUC value of KNI-272, KNI-272 10 mg/kg p.o. one hour after Indinavir 90 mg/kg) of 6900 ng·h/mL.

From US20020068749A1, “AIDS REMEDY” (priority 1996, published 2002)
